System: TPA induced immune cell infiltration and epidermal hyperproliferation
Experiment: Histopathological analysis of ear tissues (H&E), TPA induced acute dermatitis
Format: in vivo, mouse
Conditions: ear tissue, 6 hours after TPA, extract 400 mg/kg, indomethacin 10 mg/kg, compared with TPA treated group
Description: C57BL/6J male mouse at 5 weeks (DAE HAN BIOLINK CO., LTD.), the most widely used inflammation animal model, was adapted to the experimental environment for 1 week. Total 40 mice were group into 4 (10 mice per each group). TPA (12-O-Tetrade-canoylphobol 13-acetate) was locally applied (2.5 ug/20 ul acetone) to the right ears of 6 week old mice to induce edema and dermatitis. The left ears of the mice were used as the negative control, to which an excipient (20 ul of acetone) was treated. The experimental group was treated with Glehnia littoralis Fr. Schmidt et Miquel extract (400 mg/kg) by intraperitoneal injection one hour before TPA treatment. The positive control group was administered with indomethacin (10 mg/kg) one hour before TPA treatment and the negative control was administered with saline by the same manner.
Inflammation was induced for 6 hours by the same manner as described in Experimental Example <1-1> and then the animal was sacrificed. […] In the […], edema and inflammation accompanying symptoms of migration and infiltration of polymorphonuclear leukocytes were induced. In the meantime, in the experimental group (C) administered with Glehnia littoralis Fr. […]

## COc1ccc2c(c1)c(CC(=O)O)c(C)n2C(=O)c1ccc(Cl)cc1 [indomethacin]
  infiltration of immune cells and epidermal hyperproliferation: inhibition
